According to US11286258B2, “Nature-inspired anticancer and antibacterial motifs and pharmaceutical composition thereof” (University of Sharjah, priority 2020, dated 2022):
≈ marks a conversion by molar mass, not a printed value.

Legend:
[1] = test system: MDA-MB-231; assay: MTT cell viability, MDA-MB-231; type: cell-based; settings: Homo sapiens, breast cancer, 48 h of drug treatment, average of three experiments
Method: (§1) Cell viability studies: Cell viability was assessed using the MTT assay as described before. In brief, all cancer cell lines were seeded at a density of 4×10^4/well in 96 well flat-bottom plates. After 24 h from seeding, cells were treated with the synthesized compounds and left for an incubation period of 48 h. Upon reaching the indicated time point, the media was removed and replaced with 200 μL fresh media containing 0.5 mg/mL of MTT tetrazolium dye (Sigma-Aldrich). Cells were then incubated with MTT solution for 2 h at 37° C. The resultant formazan crystals were dissolved in 200 μl/well of DMSO and absorbance was measured at 570 nm using a microplate reader (Thermo Scientific).

[2] = test system: SKOV3; assay: MTT cell viability, SKOV3; type: cell-based; settings: Homo sapiens, SK-OV-3; 48 h of drug treatment; average of three experiments
Method: as §1

[3] = test system: AGS; assay: MTT cell viability, AGS; type: cell-based; settings: Homo sapiens, stomach cancer, 48 h of drug treatment, average of three experiments
Method: as §1

[4] = test system: MRSA-1 (clinical isolate); assay: MIC broth microdilution, MRSA-1; type: cell-based, Staphylococcus aureus; settings: Staphylococcus aureus, MRSA; overnight incubation, Mueller-Hinton broth; read-out: MIC MRSA-1 (clinical isolate)
Method: Antibacterial activity: The compounds were tested for the minimum inhibitory concentrations (MIC), which is the lowest concentration of a chemical required to inhibit visible microbial growth following overnight incubation. MIC values were determined using broth microdilution method according to the Clinical and Laboratory Standards Institute guidelines (CLSI, 2015, M07-A10). Mueller-Hinton broth was used as a culture medium in all the experiments. Exponentially growing bacterial cells were prepared in Mueller-Hinton broth at a concentration of approximately 5×10^5 CFU/mL. Two-fold serial dilutions of the test compound (8 concentrations ranged between 100-0.78 μg/mL) were tested. […] In each experiment, solvent (DMSO) was used as a negative control, un-treated control (composing of bacteria in Mueller-Hinton broth) was used as a growth control, blank (culture media alone) was used as sterility control. The 96-well microplate with the test compounds was incubated overnight at 37° C. Turbidity in wells indicated bacterial growth.
The compounds were tested on six MDR Gram-positive bacteria including three clinical isolates of methicillin-resistant Staphylococcus aureus (MRSA-1, MRSA-2 and MRSA-3) and three reference MRSA strains (ATCC33591, ATCC33592 and ATCC700699). They were also tested on three MDR Gram-negative bacteria including New Delhi metallo-beta-lactamase (NDM-1) positive, carbapenem-resistant E. coli (ATCC BAA2469), extended-spectrum beta-lactamase (ESBL) producing, colistin-resistant E. coli (CDC-AR-0346) and carbapenem-resistant Acinetobacter baumannii (ATCC BAA1605), in addition to two non-MDR bacteria from the same species, namely E. coli (ATCC 25922) Acinetobacter baumannii (ATCC 19606).

[5] = test system: SKBR3; assay: MTT cell viability, SKBR3; type: cell-based; settings: Homo sapiens, SK-BR-3; breast cancer; 48 h of drug treatment; average of three experiments
Method: as §1

[6] = test system: MDA-MB-468; assay: MTT cell viability, MDA-MB-468; type: cell-based; settings: Homo sapiens, breast cancer, 48 h of drug treatment, average of three experiments
Method: as §1

[7] = test system: JIMT1; assay: MTT cell viability, JIMT1; type: cell-based; settings: Homo sapiens, JIMT-1; breast cancer; 48 h of drug treatment; average of three experiments
Method: as §1

[8] = test system: Hela cells; assay: Western blot, autophagy- and iron metabolism-related proteins, Hela; type: cell-based, human
Method: Western Blotting (autophagy- and iron metabolism-related proteins): Cells were grown in DMEM supplemented with 10% FBS and 1×PEST (Penicillin and streptomycin antibiotics) at 37° C. in incubator having humidified atmosphere with 5% CO2. The media were removed and cells were washed twice with 1× cold PBS. Cells lysis was performed with RIPA lysis buffer containing (150 mM sodium chloride, 1.0% NP-40, 0.1% SDS, 50 mM Tris pH 8.0, 0.5% sodium deoxycholate supplemented with protease inhibitors cocktail). Cells were kept on icebox during the lysis process. Cold lysis buffer was added to each well directly and then cells were scraped and collected in 1.5 ml Eppendorf tube. Cell lysis was kept on icebox for 20 minutes and then centrifuged at 4° C. for 10 minutes. The supernatant was collected and the pellet was discarded. After, protein quantification, samples were boiled in 5× loading buffer at 95° C. for 5 minutes. After completion of the gel running and transfer process, the membrane was stained with ponceau solution. After that, the membrane was washed with 1×TBST and then blocked in 5% non-fat dry milk for 1 hr at room temperature. The membrane was washed 3 times with 1×TBST and then incubated with indicated primary antibodies at 4° C. overnight. Primary antibodies were removed; the membrane was washed 3 times with 1×TBST and then incubated with secondary antibodies for 2 h at room temperature. Secondary antibodies were diluted in 5% non-fat dry milk in 1× TB ST. After removal of the secondary antibody, the membrane was washed 3 times with 1×TBST. The membrane was incubated in ECL solution and the signal was developed using Gel Doc system from Biorad.

[9] = test system: Hep3B cells; assay: Western blot, apoptotic biomarkers, tumor suppressor genes and oncogenes, Hep3B; type: cell-based, human; settings: for PARP cleavage / Cleavage of caspase7 and caspase-3: 1 to 4 μM, 48 h; for Cleavage of caspase7 and caspase-3: clear at 4 μM; for c-Myc oncogene level: dose-dependent manner
Method: (§2) Western blotting (apoptotic biomarkers, tumor suppressor genes and oncogenes): Hep3B and HCT-116 cells were treated with 1f and 1h compounds with increasing concentrations from 1 to 4 μM for 48 h. After reaching the time point, proteins were extracted from the collected cells after their lyses, and protein quantification was performed using a Detergent compatible (DC) protein assay kit (Bio-Rad) following the manufacturer's instructions. 12% SDS-polyacrylamide gels were used to separate the proteins, following the proteins were transferred onto nitrocellulose membrane using a semi-dry transfer cell. After transfer, membranes were incubated with primary antibodies and the incubation was left overnight at 4° c. The following antibodies were implicated: anti-β actin (Cell Signalling #4970), anti-caspase3 (Cell Signalling #14220), anti-caspase-7 (Cell Signalling33 #9492), anti-PARP (Cell Signalling #9532), anti-P53 (Cell Signalling #2527), anti-C-myc (Cell Signalling #18583), and anti-BAX (#5023). Finally, membranes were incubated with secondary conjugated with horseradish peroxidase. The indicated proteins were detected by chemiluminescence.

[10] = test system: HCT-116 cells; assay: Western blot, apoptotic biomarkers, tumor suppressor genes and oncogenes, HCT-116; type: cell-based, human; settings: for PARP cleavage / Cleavage of caspase7 and caspase-3 / Levels of p53 proteins / c-Myc oncogene level: HCT-116; for PARP cleavage / Cleavage of caspase7 and caspase-3: 1 to 4 μM, 48 h; for Cleavage of caspase7 and caspase-3: clear at 4 μM; for Levels of p53 proteins: at higher concentrations; for c-Myc oncogene level: dose-dependent manner; for Levels of BAX: treated cells, parallel to decreased p53
Method: as §2

IC50 [1] [µM]	IC50 [2] [µM]	IC50 [3] [µM]	MIC [4] [µg/mL]	IC50 [5] [µM]	IC50 [6] [µM]	Structure (SMILES)	IC50 [7] [µM]	Expression and metabolism of autophagy marker LC3B1/II [8]	Expression of DNA damage marker pH2AX [8]	PARP cleavage [9]	Cleavage of caspase7 and caspase-3 [9]	c-Myc oncogene level [9]	PARP cleavage [10]	Cleavage of caspase7 and caspase-3 [10]	Levels of p53 proteins [10]	c-Myc oncogene level [10]	Levels of BAX [10]	Expression of Ferritin heavy chain (FTH1) [8]	Expression of cell cycle marker CDK6 [8]	Expression of cellular iron exporter protein Ferroportin (FPN) [8]
4.03 ± 0.16	4.68 ± 0.22	4.66 ± 0.15	1.56 (≈ 3.25 µM)	4.1 ± 0.21	2.49 ± 0.16	COc1ccc2c(c1)c1c3n2[C@@]2(C=C/C(=N\Nc4ccc(C(F)(F)F)cc4)CC2)CC[C@@H]3NCC1 [Compound 1k]	3.49 ± 0.06	upregulate	induce	–	–	–	–	–	–	–	–	–	–	–
–	–	–	6.25 (≈ 13.4 µM)	–	–	FC(F)(F)Oc1ccc(N/N=C2\C=C[C@@]3(CC2)CC[C@@H]2NCCc4c2n3c2ccccc42)cc1 [Compound 1f]	–	–	–	PARP cleavage	cleavage	downregulate	PARP cleavage	cleavage	decreased	downregulate	decreased levels	–	–	–
–	–	–	1.56 (≈ 3.36 µM)	–	–	Cc1ccc2c(c1)c1c3n2[C@@]2(C=C/C(=N\Nc4ccc(C(F)(F)F)cc4)CC2)CC[C@@H]3NCC1 [Compound 1h]	–	–	–	PARP cleavage	cleavage	downregulate	PARP cleavage	cleavage	decreased	downregulate	decreased levels	–	–	–
3.63 ± 0.06	3.84 ± 0.21	3.31 ± 0.12	1.56 (≈ 3.46 µM)	1.96 ± 0.08	2.5 ± 0.13	FC(F)(F)c1ccc(N/N=C2\C=C[C@@]3(CC2)CC[C@@H]2NCCc4c2n3c2ccccc42)cc1 (racemic) [Compound 1e]	3.08 ± 0.14	upregulate	–	–	–	–	–	–	–	–	–	inhibits	inhibits	inhibits
